# How the values were obtained:
# A2780-High cells = assay: Tumourigenesis of ATRA-pretreated cells in mouse xenograft; assay type: in vivo, NOD/SCID mice
# Experimental: Briefly, cells were implanted in 50% Matrigel (BD Biosciences, San Jose, Calif.) and injected subcutaneously into the left flanks of 4- to 6-week-old female NOD/SCID (NOD.CB17-PRKDC (SCID)) mice. We observed mice for tumour formation every other day after cell inoculation and measured tumour size when it became measurable. Tumour size was measured using Vernier callipers by external measurement of the length and width, and the tumour volume was computed from the formula for an ellipsoid body [volume=(length/2)×(width)]. When the tumours reached ˜2000 mm^3 at approximately 28 days, the mice were sacrificed. […] All tumours were excised, fixed in 10% neutral buffered formalin, and embedded in paraffin for histological assessment or shock-frozen in liquid N2 and stored at −80° C. for further analysis.
# [1] = tested on: A2780-High and CP70-High cells; assay: Transwell migration assay; assay type: cell-based, human; conditions: 10 μM ATRA for 28 days
# Experimental: (§1) Cells (1×10^5) were seeded on Transwell filters with a pore size of 8 μm (Corning Costar) and were allowed to migrate toward medium containing 10% FBS. After 8 h, the cells on the upper surface of the Transwell membrane were removed with a cotton swab, and the migrated cells (on the underside of the Transwell) were fixed and stained with methanol and Giemsa staining dye (Merck, Darmstadt, Germany). The invasion assay was conducted in the same manner as the migration assay, except that Matrigel (BD Biosciences) was used, the incubation time differed (24 h) and the number of cells added to the upper chamber was 2×10^5 cells. Cell migration and invasion were quantified by counting the migrated cells in six random fields under a light microscope.
# A2780-High tumour = assay: Antitumour efficacy of ATRA in mouse xenografts; assay type: in vivo, NOD/SCID mice
# Experimental: (§2) Cell suspensions of 1×10^6 A2780-High or CP70-High cells were inoculated subcutaneously into mice.
# (§3) All animal studies adhered to protocols approved by the Institutional Animal Care and Use Committee of National Cheng Kung University Medical Centre. The mouse xenograft model was prepared as previously reported (Molthoff, C. F. et al. (1991) Int. J. Cancer, 47, 72-79). Briefly, cells were implanted in 50% Matrigel (BD Biosciences, San Jose, Calif.) and injected subcutaneously into the left flanks of 4- to 6-week-old female NOD/SCID (NOD.CB17-PRKDC (SCID)) mice. We observed mice for tumour formation every other day after cell inoculation and measured tumour size when it became measurable. Tumour size was measured using Vernier callipers by external measurement of the length and width, and the tumour volume was computed from the formula for an ellipsoid body […]. When the tumours reached ˜2000 mm^3 at approximately 28 days, the mice were sacrificed. […] All tumours were excised, fixed in 10% neutral buffered formalin, and embedded in paraffin for histological assessment or shock-frozen in liquid N2 and stored at −80° C. for further analysis.
# as §2
# CP70-High tumour = assay: Antitumour efficacy of ATRA in mouse xenografts; assay type: in vivo, NOD/SCID mice; conditions: 1×10^6 cells s.c.; ATRA 0.05 or 0.1 mg into the peritoneal cavity three times per week; at 22 days after tumour cell inoculation
# Experimental: as §2, §3, §2
# [2] = tested on: ALDH1, FoxM1, Notch1, Oct-4 and Nanog expression in A2780 and CP70 cells; assay: Western blotting of ALDH1, FoxM1, Notch1 and CSC markers; assay type: cell-based, human; conditions: A2780-High and CP70-High cells; 10 μM ATRA for 28 days
# [3] = tested on: A2780 and CP70 ovarian cancer cells; assay: Sphere formation assay; assay type: cell-based, human; conditions: A2780-High and CP70-High cells; 10 μM ATRA for 28 days
# Experimental: FIGS. 1A-1F show ALDH1 regulates stemness and tumourigenic ability in ovarian cancer cells. […] A total of 1×10^3 A2780 (upper panel) and CP70 (lower panel) cells were seeded into a 96-well plate to evaluate the cells' sphere formation ability (scale bar=200 μm). DEAB was used to inhibit the reaction of ALDH1 and also served as a negative control. […] The β-actin was used as a protein loading control. The histogram represents the relative fold change of protein expression (right panel). […] A2780-ALDH1 (upper panel) and CP70-shALDH1 (lower panel) cells were seeded into 96-well plates to evaluate their sphere formation ability (scale bar=200 μm).
# FIGS. 2A-2D show ALDH1 regulates stemness and tumourigenic ability through the FoxM1 and Notch1 signalling pathways. […] Representative images show spheres generated from single-cell cultures after 10 days. The lower panel depicts the relative sphere formation ratio (scale bar=200 μm). […] V: vector.
# (§4) Standard sphere formation assays were performed according to Zhang et al. (Zhang, S. et al. Cancer Res., 68, 4311-4320.) with minor modification. The cells (1×10^3) were resuspended in serum-free DMEM/F12 medium supplemented with 5 μg/ml insulin (Sigma), 20 ng/ml human recombinant epidermal growth factor (EGF; Invitrogen, Life Technologies, Carlsbad, Calif.) and 10 ng/ml basic fibroblast growth factor (bFGF; Invitrogen) in ultra-low attachment plates (Corning Costar, Corning, N.Y.). Spheres that arose within 1-2 weeks were counted. Colony diameters >50 μm were counted as a single-positive colony. The middle field was chosen for counting of spheres, and two fields for each plate were counted under a dissecting microscope. For all sphere formation experiments, a minimum of eight wells was run for each condition. All data represent the mean ±SEM of three separate experiments and at least 24 different fields.
# (§5) An Aldefluor® kit (StemCell Technologies) was used to assess ALDH activity in the ovarian cancer cell lines, as previously described (Saw, Y. T. et al. (2012) BMC Cancer, 12, 329.). In brief, 1×10^6 cells were incubated in Aldefluor® assay buffer containing a 1.5 μM ALDH substrate for 30 min at 37° C. Each sample was treated with 50 μM of DEAB, and used as a negative control. Prior to analysis, cells were stained with […] of propidium iodide to evaluate their viability. The fluorescence intensity of the stained cells was analysed using a FACSAria cell sorter Flow Cytometer (BD Biosciences). The reaction with DEAB was used to define the baseline for the assay. The ALDH activity of a sample was determined to be ‘high’ or ‘low’ based on the fluorescence intensity beyond or below the threshold defined by the reaction with DEAB. The cells having high or low ALDH activity are marked “-High” or “-Low” hereafter.
# [4] = tested on: A2780 and CP70 ovarian cancer cells; assay: MTT cytotoxicity assay (proliferation, doubling time); assay type: cell-based, human; conditions: A2780-High and CP70-High cells; ATRA treatment
# Experimental: (§6) The cell lines were cultured in a humidified incubator containing 95% air and 5% CO2 at 37° C. in 96-well flat-bottomed microtiter plates. After 72 h of incubation, the in vitro cytotoxic effects of treatments were determined by MTT assay (at 570 nm).
# [5] = tested on: ALDH1, FoxM1 and Notch-1 expression in ES2 cells; assay: Western blotting of ALDH1, FoxM1 and Notch1; assay type: cell-based, human; conditions: ES2-High cells; ATRA
# CP70-High cells = assay: Tumourigenesis of ATRA-pretreated cells in mouse xenograft; assay type: in vivo, NOD/SCID mice
# Experimental: as §3
# We then inoculated 1×10^4 ATRA-pretreated A2780-High or CP70-High cells into mice. […] However, these findings were not observed in ES2-Low cells (FIG. 4A and FIG. 4B).
# ES2-High cells [6] = assay: Transwell migration assay; assay type: cell-based, human; conditions: ATRA
# Experimental: (§7) Right panel: relative fold changes of ALDH1 and FoxM1 expression compared with controls. […] Sphere formation in ES2-High cells after treatment with different concentrations of Thiostrepton or DAPT, and the relative fold changes in expression are shown (scale bar=200 μm).
# as §1
# ALDH1 [7] = assay: Aldefluor assay of ALDH1 enzyme activity / ALDH1-High cell fraction; assay type: cell-based, human
# Experimental: as §5
# [8] = tested on: ES2 cells (ES2-High, ES2-Low); assay: Sphere formation assay; assay type: cell-based, human; conditions: ES2-High cells; ATRA (10 μM)
# Experimental: as §7, §4, §5
# ALDH1 [9] = assay: Immunohistochemical staining for ALDH1 in tumour tissue sections
# ES2-High cells [10] = assay: MTT cytotoxicity assay (proliferation, doubling time); assay type: cell-based, human; conditions: ATRA
# Experimental: as §7, §6
# [11] = tested on: A2780-High and CP70-High cells; assay: Transwell invasion assay; assay type: cell-based, human; conditions: 10 μM ATRA for 28 days
# Experimental: as §1
# [12] = 1×10^4 cells pretreated with ATRA (10 μM) for 28 days, inoculated into mice
# [13] = CP70-High cells pretreated with ATRA, 1 × 10^4 cells injected
smiles,measurement,setting,value
"CC1=C(/C=C/C(C)=C/C=C/C(C)=C/C(=O)O)C(C)(C)CCC1 [ATRA, all-trans retinoic acid]",tumour formation ability,A2780-High cells; [12],almost completely abrogated
same,Number of tumours/number of injections,"A2780-High cells; A2780-High cells pretreated with ATRA, 1 × 10^4 cells injected",4/9
same,cell migration ability,[1],significantly reduced
same,tumour growth,"A2780-High tumour; 1×10^6 cells s.c., ATRA 0.05 or 0.1 mg into the peritoneal cavity three times per week",inhibited A2780-High tumour growth in a dose-dependent manner
same,effective dose for mice,"A2780-High tumour; mouse xenografts, administered doses 0.05 and 0.1 mg",at least 0.05 mg
same,tumour growth,CP70-High tumour,significantly suppressed
same,ALDH1 expression,[2],significantly reduced
same,FoxM1 expression,[2],significantly reduced
same,Notch1 expression,[2],significantly reduced
same,sphere formation ability,[3],significantly reduced
same,proliferation (cell doubling time),[4],did not affect proliferation
same,ALDH1 expression,[5],inhibited
same,FoxM1 expression,[5],inhibited
same,Notch1 expression,[5],inhibited
same,tumour size,CP70-High cells; [12],significant reduction of tumour size
same,Number of tumours/number of injections,CP70-High cells; [13],4/5
same,average tumour volume,CP70-High cells; [13],(545) mm^3
same,Tumour-initiating cell frequency,"CP70-High cells; CP70-High cells pretreated with ATRA, calculated with ELDA software",1/6213
same,cell migration ability,ES2-High cells [6],inhibited
same,ALDH1 activity,"ALDH1 [7]; A2780-High and CP70-High cells, 10 μM ATRA for 28 days",significantly reduced
same,proportion of ALDH1-High cells,"ALDH1 [7]; A2780-Low and CP70-Low cells, ATRA (10 μM) or paclitaxel (60 ng/ml) for 4 days",decreased the proportion of ALDH1-High ovarian cancer cells
same,sphere formation ability,[8],inhibited
same,ALDH1 expression in tumour cells from tissue sections,ALDH1 [9]; ATRA-treated mice compared with control mice,downregulated
same,ALDH1 expression in tumour cells (immunostaining),ALDH1 [9]; tumours from ATRA-pretreated ALDH1-High cells,reduced ALDH1 expression
same,proliferation (cell doubling time),ES2-High cells [10],did not affect proliferation
same,cell invasion ability,[11],significantly reduced

# From patent publication US20170209403A1, “METHOD FOR REGULATING ALDEHYDE DEHYDROGENASE 1” (National Cheng Kung University, priority 2016, published 2017)
